Assay results reported in patent US20160207904A1, “CRYSTALLINE 2-HYDROXY-6-((2-(1-ISOPROPYL-1H-PYRAZOL-5-YL)PYRIDIN-3-YL)METHOXY)BENZALDEHYDE ANSOLVATE SALTS” (GLOBAL BLOOD THERAPEUTICS, INC., priority 2013, published 2016).

Experiments:
Type in all cases: physicochemical
[1] = Interconversion study (slurries of mixed forms in ethyl acetate or ethanol, XRPD); conditions: ambient condition, hydrochloride
Protocol: (§1) In an interconversion study, a mixture of all identified crystal forms turned into Form I after slurry experiments in ethyl acetate or ethanol. […] The XRPD patterns and microscopy images of the three crystal forms are shown in FIG. 6 and FIG. 7, respectively.
Interconversion Study: Interconversion experiments were carried out by making slurries containing the same amount of different forms solids in ethyl acetate or ethanol. The slurries were kept stirring for days at ambient condition. The insoluble solids were recovered by filtration and examined using XRPD.
Interconversion experiments were performed with the various crystalline forms. Samples of equal amount of Form I mixed with Form II in solvents (ethyl acetate or ethanol) were slurried at ambient condition with covering. The remaining solids were collected by filtration and examined by XRPD. […] Some observed differences in the —OH stretch region at 3500 cm−1 in FTIR were most likely due to the preferred orientation which may be caused by particle size and morphology difference.

[2] = Dynamic vapor sorption (DVS); conditions: at 80% RH, 25.0±1.0° C.
Protocol: Dynamic Vapor Sorption (DVS): Dynamic moisture adsorption and desorption was studied using IGA Sorp (Hidden Isochema Ltd.Warrington, UK). About 5 mg (3˜5 mg) of a prepared sample was placed in a sample basket and hung in the measuring chamber of an IGA Sorp. For an isotherm test, the chamber temperature is maintained by a water bath at constant 25.0±1.0° C. The sample was tested at a targeted RH range from 0% to 90% full cycle in step mode. The analysis is performed in 10% increment. Time duration at each RH was set as […] Solid State Characterizaton: Form I of Compound 1 hydrochloride was characterized by XRPD (FIG. 1), TGA (FIG. 2), DSC (FIG. 3), DVS (FIG. 4). […] The crystal form of the initial drug substance is assigned as Form I.

[3] = Physical stability of crystal forms at ambient conditions; conditions: converted into Form I or a mixture of Form I and its free base
Source text: Methods: Three crystal forms of 2-hydroxy-6-((2-(1-isopropyl-1H-pyrazol-5-yl)pyridin-3-yl)methoxy)benzaldehyde hydrochloride with different XRPD patterns were identified in this study based on a matrix of crystallizations in various solvents, screened in 96-wells as described below. An initial drug substance was assigned as Form I. Form I was also obtained in numerous conditions during solvent crystallization in the 96-well screen and in slurry studies. Form II and Form III were also generated. Solids obtained were characterized by X-ray powder diffraction (XRPD), differential scanning calorimetry (DSC), thermogravimetry (TGA), polarizing microscope (PLM) and Fourier transform infrared spectrometer (FTIR).
as §1

[4] = Heating to 80° C. by TGA, then XRPD; conditions: heated to 80° C. by TGA
Protocol: Powder X-RayDiffraction (XRPD): The solid samples were examined using X-ray diffractometer (Bruker D8 advance). The system is equipped with LynxEye detector. The samples were scanned from 3 to 40° 2θ, at a step size 0.02° 2θ. The tube voltage and current were 40 KV and 40 mA respectively. The sample was transferred from sample container onto zero background XRD holder and gently ground. TGA Analysis: TGA analysis was carried out on a TA Instruments TGA Q500. Samples was placed in a tarred platinum or aluminum pan, automatically weighed and inserted into the TGA furnace. The samples were heated at a rate of 10° C./min to final temperature of 300° C. The purge gas is nitrogen for balance at 40 ml/min and for the sample at 60 ml/min, respectively. Scale-up of Form II: 60 mg or 40 mg of Compound 1 hydrochloride was dissolved in 3 mL of ethanol or 1-butanol, respectively. Both solutions were filtered, filtrates were collected and then the two filtrates were combined in (1:1) volume ratio. The resulting solution was allowed to evaporate at ambient condition to dryness to yield Form II.

## CC(C)n1nccc1-c1ncccc1COc1cccc(O)c1C=O.Cl [Form I, 2-hydroxy-6-((2-(1-isopropyl-1H-pyrazol-5-yl)pyridin-3-yl)methoxy)benzaldehyde hydrochloride]
[1]
  outcome of interconversion (slurry) experiments / relative thermodynamic stability: the most thermodynamically stable form
[2]
  water picked up (DVS profile): < 1%

## CC(C)n1nccc1-c1ncccc1COc1cccc(O)c1C=O.Cl [Form III, 2-hydroxy-6-((2-(1-isopropyl-1H-pyrazol-5-yl)pyridin-3-yl)methoxy)benzaldehyde hydrochloride]
[3]
  stability of crystal form at ambient conditions: unstable at ambient conditions

## CC(C)n1nccc1-c1ncccc1COc1cccc(O)c1C=O.Cl [Form II, 2-hydroxy-6-((2-(1-isopropyl-1H-pyrazol-5-yl)pyridin-3-yl)methoxy)benzaldehyde hydrochloride]
[1]
  outcome of interconversion (slurry) experiments / relative thermodynamic stability: transforms almost entirely to Form I crystals
[4]
  XRPD after heating: remained unchanged
[3]
  stability of crystal form at ambient conditions: unstable at ambient conditions
